How the values were obtained:
Experiment in all cases: relative viability (nuclei count vs DMSO), 5 days (fraction); higher = more cells survive
[1] = compound: CC1=CC(=CC=C1)NC2=NC(=CS2)C3=CC=NC=C3 + N=C(N)NC(=N)NCCc1ccccc1 [Phenformin] (partner 250 µM)
In short: (§1)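 Nuclei were stained with Hoechst during a one-step fixation (final 0.05% Triton X-100, 1% formaldehyde, 1 ug/ml Hoechst) carried out 5 days after dosing, then counted on 4× images. The cells, lung cancer lines in 1536-well plates, had been dosed by pin tool the day after seeding with one drug alone or a fixed anchor-drug dose plus five library-drug doses (not always all listed) in √10 steps. Relative viability is the nuclei count in treated wells divided by that in vehicle wells, and each value is the median of duplicate plates.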

[2] = compound: Cc1ccc(NC(=O)c2ccc(CN3CCN(C)CC3)cc2)cc1Nc1nc(-c2cccnc2)cs1 [Masitinib] + CC(C)C[C@H](NC(=O)[C@H](Cc1ccccc1)NC(=O)c1cnccn1)B(O)O [Bortezomib] (partner 0.002 µM)
In short: as §1

[3] = compound: Cc1ccc(NC(=O)c2ccc(CN3CCN(C)CC3)cc2)cc1Nc1nc(-c2cccnc2)cs1 [Masitinib] + CS(=O)(=O)CCNCc1ccc(-c2ccc3ncnc(Nc4ccc(OCc5cccc(F)c5)c(Cl)c4)c3c2)o1 [Lapatinib] (partner 2 µM)
In short: as §1

[4] = compound: CC1=CC(=CC=C1)NC2=NC(=CS2)C3=CC=NC=C3 + Cc1cc(Nc2cc(N3CCN(C)CC3)nc(Sc3ccc(NC(=O)C4CC4)cc3)n2)n[nH]1 [Tozasertib] (partner 0.1 µM)
In short: as §1

Cell Line	relative viability ([1]; first compound 0.08 µM)	relative viability ([1]; first compound 0.253 µM)	relative viability ([1]; first compound 0.8 µM)	relative viability ([1]; first compound 2.53 µM)	relative viability ([1]; first compound 8 µM)	relative viability ([2]; first compound 0.01 µM)	relative viability ([2]; first compound 0.03162 µM)	relative viability ([2]; first compound 0.1 µM)	relative viability ([2]; first compound 0.3162 µM)	relative viability ([2]; first compound 1 µM)	relative viability ([3]; first compound 0.01 µM)	relative viability ([3]; first compound 0.03162 µM)	relative viability ([3]; first compound 0.1 µM)	relative viability ([3]; first compound 0.3162 µM)	relative viability ([3]; first compound 1 µM)	relative viability ([4]; first compound 0.08 µM)	relative viability ([4]; first compound 0.253 µM)	relative viability ([4]; first compound 0.8 µM)	relative viability ([4]; first compound 2.53 µM)	relative viability ([4]; first compound 8 µM)
201T	0.389	0.38	0.44	0.375	0.433	0.918	1.09	0.99	1.09	1.07	0.763	1.01	0.811	0.882	1.03	1.04	0.94	0.961	0.804	0.692
A549	0.179	0.179	0.15	0.169	0.235						0.995	0.948	1.05	0.942	0.963					
A-427	0.355	0.28	0.355	0.326	0.244		0.977		0.99	1.06		1.02		1.17	1.03	0.245	0.185	0.216	0.213	0.192
ABC-1	0.229	0.223	0.193	0.221	0.31	0.324	0.296	0.287	0.306	0.256	1.54	1.15	1.21	1.37	1.16	0.206	0.173	0.176	0.187	0.237
BEN	0.27	0.254	0.285	0.266	0.25	1.15	0.662	0.874	0.666	0.831	0.774	0.675	0.928	0.54	0.65	0.437	0.557	0.512	0.479	0.563
CAL-12T	0.513	0.518	0.604	0.537	0.516	0.852	1.05	1.06	1.07	0.713	0.612	0.729	0.745	0.592	0.499	0.381	0.277	0.32	0.25	0.185
COR-L23	0.414	0.378	0.443	0.377	0.406	0.924	0.806	1.11	1.26	0.972	0.715	1.2	0.896	1.2	1.17	0.186	0.189	0.155	0.172	0.099
COR-L 105	0.429	0.495	0.534	0.388	0.496	0.695	0.699	0.823	0.823	0.725	0.298	0.379	0.4	0.36	0.312	0.348	0.296	0.282	0.381	0.372
Calu-6						0.903	1.04	1.07	0.774	0.876	1.05	1.01	1.25	0.938	1.05					
ChaGo-K-1	0.445	0.439	0.5	0.409	0.464	1.04	1.05	1.35	1.12	0.962						0.227	0.241	0.241	0.235	0.231
EBC-1						0.493	0.518	0.514	0.479	0.573	0.191	0.235	0.197	0.196	0.21					
EKVX	0.225	0.212	0.228	0.204	0.215		1.04	1.05	0.444	0.671		0.165	0.198	0.158	0.196	0.45	0.395	0.36	0.384	0.294
EMC-BAC-2	0.415	0.505	0.58	0.541	0.491	0.942	1.04	0.974	1.15	1.05	0.793	0.911	0.837	0.9	0.966	0.261	0.286	0.287	0.285	0.323
EPLC-272H	0.275	0.224	0.332	0.307	0.294	0.97	0.85	0.917	1.16	0.839	0.948	0.898	0.951	0.914	0.827	0.294	0.206	0.248	0.313	0.51
H3255	0.372	0.374	0.365	0.4	0.414		0.858	0.601	0.459	0.755		0.268	0.243	0.213	0.248	0.627	0.624	0.614	0.599	0.6

From the supplement of paper PMC10307832
